Laboratory results reported in the supplement of paper PMC11061612.

Tests used:
Test in all cases: Bliss excess, mean over the matrix (fraction); higher = more synergy
A204 (Rhabdomyosarcoma) = test system: A204 (Rhabdomyosarcoma)
Outline: (§1)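 Bliss excess equals the observed combination effect minus the expected value EA + EB − EA·EB, where EA and EB are the effects of each agent alone. Combination Emax is the second-highest inhibition within the matrix. Inhibition was scaled from CellTiter-Glo 2.0 luminescence, with 0 set by vehicle wells and 1 by blank wells, after 72 hours of two-drug dosing of cells plated in 1536-well plates.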

[1] = test system: CAL-27 (Oral Cavity Carcinoma)
Outline: as §1

[2] = test system: CGTH-W-1 (Thyroid Gland Carcinoma)
Outline: as §1

COLO-792 (Melanoma) = test system: COLO-792 (Melanoma)
Outline: as §1

EB2 (Burkitt's Lymphoma) = test system: EB2 (Burkitt's Lymphoma)
Outline: as §1

EW-7 (Ewing's Sarcoma) = test system: EW-7 (Ewing's Sarcoma)
Outline: as §1

[3] = test system: HCC1428 (Breast Carcinoma)
Outline: as §1

HCC70 (Breast Carcinoma) = test system: HCC70 (Breast Carcinoma)
Outline: as §1

[4] = test system: JHH-2 (Hepatocellular Carcinoma)
Outline: as §1

[5] = test system: Jurkat (T-Lymphoblastic Leukemia)
Outline: as §1

KP-N-YN (Neuroblastoma) = test system: KP-N-YN (Neuroblastoma)
Outline: as §1

[6] = test system: KYSE-220 (Esophageal Squamous Cell Carcinoma)
Outline: as §1

[7] = test system: NCI-H1651 (Lung Adenocarcinoma)
Outline: as §1

[8] = test system: NCI-H1703 (Squamous Cell Lung Carcinoma)
Outline: as §1

[9] = test system: NCI-H2087 (Lung Adenocarcinoma)
Outline: as §1

[10] = test system: NCI-H2228 (Lung Adenocarcinoma)
Outline: as §1

RH-41 (Rhabdomyosarcoma) = test system: RH-41 (Rhabdomyosarcoma)
Outline: as §1

[11] = test system: SK-HEP-1 (Hepatocellular Carcinoma)
Outline: as §1

[12] = test system: UACC-812 (Breast Carcinoma)
Outline: as §1

[13] = test system: huH-1 (Hepatocellular Carcinoma)
Outline: as §1

Cc1c2c(nn1C)CSCc1cc(n(C)n1)CSc1cc(c3ccccc3c1)OCCCc1c(C(=O)O)n(C)c3c-2c(Cl)ccc13 [AZD5991] + C[C@@H](Nc1cc(F)cc(F)c1)c1cc(C(=O)N(C)C)cc2c(=O)cc(N3CCOCC3)oc12 [AZD8186] (first compound max 1 µM, 7x7, partner max 3 µM) showed a Bliss excess (A204 (Rhabdomyosarcoma)) of -0.0051, a Bliss excess [1] of 0.0034 and a Bliss excess [2] of -0.0348. The Bliss excess (COLO-792 (Melanoma)) was 0.0218, the Bliss excess (EB2 (Burkitt's Lymphoma)) was 0.0282 and the Bliss excess (EW-7 (Ewing's Sarcoma)) was -0.0178. It also gave a Bliss excess [3] of -0.009, a Bliss excess (HCC70 (Breast Carcinoma)) of 0.0937 and a Bliss excess [4] of -0.0261. For the same molecule, the Bliss excess [5] was -0.0077, the Bliss excess (KP-N-YN (Neuroblastoma)) was -0.0498 and the Bliss excess [6] was -0.006. For the same molecule, the Bliss excess [7] was -0.0293, the Bliss excess [8] was -0.0012 and the Bliss excess [9] was -0.0168. It also gave a Bliss excess [10] of -0.0361, a Bliss excess (RH-41 (Rhabdomyosarcoma)) of -0.0114 and a Bliss excess [11] of 0.0175. The Bliss excess [12] was 0.0043 and the Bliss excess [13] was -0.0024.
Molecule CCc1c2c(nc3ccc(O)cc13)-c1cc3c(c(=O)n1C2)COC(=O)[C@]3(O)CC [SN-38] + CN(C)CCCOc1ccc(-c2ccc3ncc4c(c3c2)n(C2CCOCC2)c(=O)n4C)cn1 [AZD0156] (first compound max 0.3 µM, 7x7, partner max 1 µM) has a Bliss excess (A204 (Rhabdomyosarcoma)) of 0.0736, a Bliss excess [1] of 0.0255 and a Bliss excess [2] of -0.0056. The Bliss excess (COLO-792 (Melanoma)) was -0.011, the Bliss excess (EB2 (Burkitt's Lymphoma)) was 0.0238 and the Bliss excess (EW-7 (Ewing's Sarcoma)) was 0.0647. For the same molecule, the Bliss excess [3] was -0.0584, the Bliss excess (HCC70 (Breast Carcinoma)) was 0.0152 and the Bliss excess [4] was 0.0204. For the same molecule, the Bliss excess [5] was 0.059, the Bliss excess (KP-N-YN (Neuroblastoma)) was 0.0238 and the Bliss excess [6] was 0.0574. For the same molecule, the Bliss excess [7] was -0.021, the Bliss excess [8] was 0.0117 and the Bliss excess [9] was 0.0485. For the same molecule, the Bliss excess [10] was 0.0587, the Bliss excess (RH-41 (Rhabdomyosarcoma)) was -0.0913 and the Bliss excess [11] was 0.0105. It also gave a Bliss excess [12] of 0.034 and a Bliss excess [13] of 0.0502.
Cc1c2c(nn1C)CSCc1cc(n(C)n1)CSc1cc(c3ccccc3c1)OCCCc1c(C(=O)O)n(C)c3c-2c(Cl)ccc13 [AZD5991] + CN(C)CCCOc1ccc(-c2ccc3ncc4c(c3c2)n(C2CCOCC2)c(=O)n4C)cn1 [AZD0156] (first compound max 1 µM, 7x7, partner max 1 µM) was tested, and the Bliss excess (A204 (Rhabdomyosarcoma)) was 0.0048, the Bliss excess [1] was -0.0227 and the Bliss excess [2] was -0.0151. For the same molecule, the Bliss excess (COLO-792 (Melanoma)) was 0.0191, the Bliss excess (EB2 (Burkitt's Lymphoma)) was -0.0423 and the Bliss excess (EW-7 (Ewing's Sarcoma)) was 0.0313. The Bliss excess [3] was -0.0089, the Bliss excess (HCC70 (Breast Carcinoma)) was -0.0028 and the Bliss excess [4] was 0.0012. For the same molecule, the Bliss excess [5] was -0.0219, the Bliss excess (KP-N-YN (Neuroblastoma)) was -0.0752 and the Bliss excess [6] was -0.0053. For the same molecule, the Bliss excess [7] was 0.0042, the Bliss excess [8] was -0.0272 and the Bliss excess [9] was 0.005. It also gave a Bliss excess [10] of -0.0096, a Bliss excess (RH-41 (Rhabdomyosarcoma)) of 0.0044 and a Bliss excess [11] of 0.0098. It also gave a Bliss excess [12] of 0.0465 and a Bliss excess [13] of -0.0069.
With C=CCn1c(=O)c2cnc(Nc3ccc(N4CCN(C)CC4)cc3)nc2n1-c1cccc(C(C)(C)O)n1 [AZD1775] + C[C@@H]1COCCN1C2=NC(=NC(=C2)C3(CC3)[S@](=N)(=O)C)C4=C5C=CNC5=NC=C4 [AZD6738] (first compound max 1 µM, partner max 10 µM) the Bliss excess (A204 (Rhabdomyosarcoma)) was -0.0421, the Bliss excess [1] was 0.0428 and the Bliss excess [2] was 0.0368. For the same molecule, the Bliss excess (COLO-792 (Melanoma)) was 0.0941, the Bliss excess (EB2 (Burkitt's Lymphoma)) was 0.0589 and the Bliss excess (EW-7 (Ewing's Sarcoma)) was -0.0435. For the same molecule, the Bliss excess [3] was 0.0035, the Bliss excess (HCC70 (Breast Carcinoma)) was -0.0312 and the Bliss excess [4] was -0.0817. It also gave a Bliss excess [5] of 0.038, a Bliss excess (KP-N-YN (Neuroblastoma)) of -0.005 and a Bliss excess [6] of 0.0242. It also gave a Bliss excess [7] of -0.0105, a Bliss excess [8] of 0.0263 and a Bliss excess [9] of -0.0317. It also gave a Bliss excess [10] of -0.0399, a Bliss excess (RH-41 (Rhabdomyosarcoma)) of 0.0493 and a Bliss excess [11] of -0.0271. The Bliss excess [12] was 0.0176 and the Bliss excess [13] was 0.019.
Cc1c2c(nn1C)CSCc1cc(n(C)n1)CSc1cc(c3ccccc3c1)OCCCc1c(C(=O)O)n(C)c3c-2c(Cl)ccc13 [AZD5991] + C=CCn1c(=O)c2cnc(Nc3ccc(N4CCN(C)CC4)cc3)nc2n1-c1cccc(C(C)(C)O)n1 [AZD1775] (first compound max 1 µM, partner max 1 µM) gave a Bliss excess (A204 (Rhabdomyosarcoma)) of 0.0348, a Bliss excess [1] of -0.0508 and a Bliss excess [2] of 0.005. The Bliss excess (COLO-792 (Melanoma)) was 0.0348, the Bliss excess (EB2 (Burkitt's Lymphoma)) was -0.0969 and the Bliss excess (EW-7 (Ewing's Sarcoma)) was 0.0015. For the same molecule, the Bliss excess [3] was -0.0407, the Bliss excess (HCC70 (Breast Carcinoma)) was 0.0278 and the Bliss excess [4] was -0.063. For the same molecule, the Bliss excess [5] was -0.0066, the Bliss excess (KP-N-YN (Neuroblastoma)) was -0.0247 and the Bliss excess [6] was 0.0181. For the same molecule, the Bliss excess [7] was -0.11, the Bliss excess [8] was -0.0214 and the Bliss excess [9] was -0.0067. The Bliss excess [10] was 0.0114, the Bliss excess (RH-41 (Rhabdomyosarcoma)) was 0.0029 and the Bliss excess [11] was -0.0366. For the same molecule, the Bliss excess [12] was -0.0343 and the Bliss excess [13] was -0.0405.
Cn1cnc2c(F)c(Nc3ccc(Br)cc3Cl)c(C(=O)NOCCO)cc21 [Selumetinib] + CC(C)n1c(=O)n(C)c2cnc3cc(F)c(-c4ccc(OCCCN5CCCCC5)nc4)cc3c21 [AZD1390] (first compound max 10 µM, 7x7, partner max 0.3 µM) showed a Bliss excess (A204 (Rhabdomyosarcoma)) of -0.0567, a Bliss excess [1] of -0.0489 and a Bliss excess [2] of -0.0388. It also gave a Bliss excess (COLO-792 (Melanoma)) of -0.0088, a Bliss excess (EB2 (Burkitt's Lymphoma)) of -0.0532 and a Bliss excess (EW-7 (Ewing's Sarcoma)) of -0.0117. The Bliss excess [3] was -0.0333, the Bliss excess (HCC70 (Breast Carcinoma)) was 0.0225 and the Bliss excess [4] was -0.0357. The Bliss excess [5] was -0.0321, the Bliss excess (KP-N-YN (Neuroblastoma)) was -0.0171 and the Bliss excess [6] was 0.0022. It also gave a Bliss excess [7] of -0.0305, a Bliss excess [8] of -0.0158 and a Bliss excess [9] of -0.0541. It also gave a Bliss excess [10] of -0.0477, a Bliss excess (RH-41 (Rhabdomyosarcoma)) of -0.0082 and a Bliss excess [11] of -0.0043. For the same molecule, the Bliss excess [12] was -0.0436 and the Bliss excess [13] was -0.0349.
Work on Cc1c2c(nn1C)CSCc1cc(n(C)n1)CSc1cc(c3ccccc3c1)OCCCc1c(C(=O)O)n(C)c3c-2c(Cl)ccc13 [AZD5991] + Cc1cc2ncnn2cc1Nc1ncc2c(n1)n(C1CCOCC1)c(=O)n2C [AZD7648] (first compound max 1 µM, 7x7, partner max 10 µM) yielded a Bliss excess (A204 (Rhabdomyosarcoma)) of -0.0466, a Bliss excess [1] of -0.057 and a Bliss excess [2] of -0.0214. It also gave a Bliss excess (COLO-792 (Melanoma)) of 0.0234, a Bliss excess (EB2 (Burkitt's Lymphoma)) of 0.0285 and a Bliss excess (EW-7 (Ewing's Sarcoma)) of -0.0105. For the same molecule, the Bliss excess [3] was 0.0018, the Bliss excess (HCC70 (Breast Carcinoma)) was -0.052 and the Bliss excess [4] was -0.0272. It also gave a Bliss excess [5] of -0.0234, a Bliss excess (KP-N-YN (Neuroblastoma)) of -0.0516 and a Bliss excess [6] of 0.0083. It also gave a Bliss excess [7] of 0.0096, a Bliss excess [8] of 0.0168 and a Bliss excess [9] of -0.0221. For the same molecule, the Bliss excess [10] was -0.0413, the Bliss excess (RH-41 (Rhabdomyosarcoma)) was -0.0443 and the Bliss excess [11] was -0.0463. It also gave a Bliss excess [12] of -0.0259 and a Bliss excess [13] of -0.0224.
